Assay [1] can be described thus: rise of 2N DNA cells, HeLa – IC50, dose response (AID 1117349). The class given is functional, cell-based.
Assay [2] can be described thus: rise of 4N DNA cells, HeLa – IC50, dose response (AID 1117351). It is filed as functional, cell-based.
Assay [3] deals with Glyceraldehyde-3-phosphate dehydrogenase (Homo sapiens, UniProt P04406).
The target in assay [4] is T1, Bcl-2-related protein A1 (Mus musculus, UniProt Q07440).
T1 sequence (Q07440 whole entry): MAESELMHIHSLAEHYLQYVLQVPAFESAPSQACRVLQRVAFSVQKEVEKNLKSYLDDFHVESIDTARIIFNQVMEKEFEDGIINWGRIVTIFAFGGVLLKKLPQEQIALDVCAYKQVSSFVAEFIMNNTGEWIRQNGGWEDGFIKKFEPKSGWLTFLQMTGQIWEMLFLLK
Description: small-molecule antagonists of Bfl-1/BH3 interaction – biochemical, TR-FRET, mouse Bfl-1, confirmation (AID 621).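 Also: TR-FRET binding of GST-Bfl-1 to FITC-labelled Bid peptide via terbium antibody.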 In general terms: TR-FRET usually uses a lanthanide donor and a delayed reading to cut background.

The target of assay [5] is T1, Bcl-2-related protein A1. Description: Bfl-1 binding inhibitors, SAR follow-up, biochemical, fluorescence polarization (AID 1070). (Polarisation of emitted light reports the rotation of a fluorescent probe.)
Assay [6] is described as follows: blockers of HIV-1 envelope-mediated cell-cell fusion – cherry-pick, dose response (AID 652057). The class given is functional, cell-based.
The next assay has as its target Paired box protein Pax-8 (Homo sapiens, UniProt Q06710). Description: PAX8 transcriptional activity inhibition in RMG-I – RMG-I cells, luciferase, cherry-pick, dose response (AID 687027).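 Also: luciferase reporter driven by Pax8 target thyroperoxidase promoter measured by SteadyGlo luminescence.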 It is filed as functional, cell-based.
Assay [7] can be described thus: HIV-1 AD8 envelope cell-cell fusion blockers – cherry-pick, dose response (AID 652062).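 Also: luciferase signal from cell-cell fusion driven by HIV-1 clade B AD8 Env; potency is for inhibitors of fusion seen as a drop in luminescence.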 The class given is functional, cell-based.
Assay [8] can be described thus: inhibitors acting on PAX2 in cells – cell-based, plate reader, dry powder samples, selectivity assay for PAX8 inhibitor project, dose response (AID 743048).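 Also: HEK293 cells carrying a WT1 promoter luciferase reporter driven by expressed Pax2; potency is for inhibition of Pax2 driven reporter signal.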 The class given is functional.
A short description of assay [9]: PAX5 cellular inhibition readout – cell-based, plate reader, dry powder samples, selectivity assay for PAX8 inhibitor project, dose response (AID 743047).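 Also: HEK293 cells carrying a Pax5 driven CD19 promoter luciferase reporter; potency of inhibitors that lower reporter luminescence.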 It is filed as functional.
Assay [10] in a line: OVCAR4 cell viability loss – plate reader, dry powder, SA11, cytotoxicity control for PAX8 inhibitor project, dose response (AID 743150). Particulars: OVCAR-4. It is filed as functional, cell-based.
The nature of assay [11]: COV434 cell viability loss – plate reader, dry powder, SA7, cytotoxicity control for PAX8 inhibitor project, dose response (AID 743145). The class given is functional, cell-based.
The nature of assay [12]: OV-90 cell viability loss – plate reader, dry powder, SA8, PAX8 inhibitor project, dose response (AID 743149). It is filed as functional, cell-based.
Assay [13] can be described thus: PAX8-dependent cell viability loss – plate reader, dry powder, dose response (AID 743049). The class given is functional, cell-based.
For assay [14], the system named is Streptococcus sp. 'group A'. Description: Streptococcus pyogenes SK(-)GAS viability under kanamycin – luminescence, BacTiterGlo, confirmation, counter-screen for streptokinase expression inhibitor project, dose response (AID 1900). The class given is functional, organism-based. On the technique in general: Counterscreens check selectivity or assay interference.

Assay [15] concerns BJ. Description: BJ-TERT fibroblast viability loss – cell-based, RAS-independent, luminescence, dose response (AID 1933). Particulars: Homo sapiens. It is filed as functional.
The nature of assay [16]: cells. The class given is functional, cell-based.
In assay [17] the test system is Vero. Description: mammalian cell viability reduction – secondary assay, cytotoxicity control for West Nile virus antiviral project, dose response (AID 1650). Conditions: Chlorocebus sabaeus. The class given is functional.
Assay [18] deals with BJ. The assay can be described thus: cells. The class given is functional, cell-based. Particulars: Homo sapiens.
Assay [19] can be described thus: Trypanosoma cruzi growth suppression in host cells – NIH3T3 host cells, beta-gal luminescence, confirmation (AID 2044).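 Also: intracellular parasites grown in NIH/3T3 mouse fibroblasts as host cells; luminescent beta-galactosidase reporter signal from transgenic T. cruzi replicating inside host cells; inhibitors lower the luminescence signal.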 It is filed as functional, cell-based.
Assay [20] can be described thus: cells. It is filed as functional, cell-based. The source holds these as a separate data set.
The nature of assay [21]: NIH3T3 cell viability loss – ATP luminescence, mouse fibroblasts, counter-screen, dose response (AID 2010).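 Also: cells exposed to compound for about 90 hours before reading.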 It is filed as functional, cell-based.
Assay [22] has as its system BJ. Description: BJ-TERT-LT-ST fibroblast viability loss – cell-based, RAS-independent, luminescence, dose response (AID 1935).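 Also: BJ fibroblasts immortalized with TERT plus LT and ST oncogenes.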 It is filed as functional. Conditions: Homo sapiens.
The nature of assay [23]: DRD fibroblast viability loss – cell-based, non-viral oncogenic, luminescence, dose response (AID 1934). It is filed as functional. Conditions: Homo sapiens.
The subject of the next assay is Streptococcus. The assay can be described thus: GAS UMAA2166 growth inhibition – luminescence, BacTiterGlo, counter-screen for streptokinase expression inhibitor project, dose response (AID 1915).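 Also: potency for reduction of bacterial viability or growth.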 It is filed as functional, organism-based.
In assay [24] the test system is Vero. The assay can be described thus: cells. Conditions: Chlorocebus sabaeus. The class given is functional, cell-based.
Assay [25] is described as follows: OVCAR-3 cell viability loss – plate reader, dry powder samples, PAX8 inhibitor project, dose response (AID 743044). The class given is functional, cell-based.
Assay [26] can be described thus: general cell-killing toxicity readout – plate reader, dry powder samples, cytotoxicity control for PAX8 inhibitor project, dose response (AID 743021). It is filed as functional, cell-based.
Assay [27] can be described thus: OVCAR8 cell viability loss – plate reader, dry powder samples, PAX8 project, dose response (AID 743197). Particulars: OVCAR-8. It is filed as functional, cell-based.
Assay [28] in a line: antimalarial activity against Dd2 parasites – SYBR Green fluorescence, erythrocytes, dry powder, set 2, dose response (AID 1159574). It is filed as functional, cell-based.

Active and inactive are the calls of the source.

Chain of Paired box protein Pax-8 (Q06710 whole entry, the tested form may be a part): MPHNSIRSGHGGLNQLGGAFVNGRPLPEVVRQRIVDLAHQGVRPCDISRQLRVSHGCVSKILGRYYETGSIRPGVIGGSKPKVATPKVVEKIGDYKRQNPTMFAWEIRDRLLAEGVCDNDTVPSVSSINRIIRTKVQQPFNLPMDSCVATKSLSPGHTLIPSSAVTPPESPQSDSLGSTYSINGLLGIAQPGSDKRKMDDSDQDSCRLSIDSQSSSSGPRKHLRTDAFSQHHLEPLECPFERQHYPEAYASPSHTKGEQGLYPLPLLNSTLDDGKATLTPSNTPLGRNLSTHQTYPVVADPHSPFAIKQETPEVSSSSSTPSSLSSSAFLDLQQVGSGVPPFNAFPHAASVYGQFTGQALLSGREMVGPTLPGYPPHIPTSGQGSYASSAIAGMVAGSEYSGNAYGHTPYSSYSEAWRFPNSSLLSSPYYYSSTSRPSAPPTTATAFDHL
Chain of Glyceraldehyde-3-phosphate dehydrogenase (P04406 whole entry): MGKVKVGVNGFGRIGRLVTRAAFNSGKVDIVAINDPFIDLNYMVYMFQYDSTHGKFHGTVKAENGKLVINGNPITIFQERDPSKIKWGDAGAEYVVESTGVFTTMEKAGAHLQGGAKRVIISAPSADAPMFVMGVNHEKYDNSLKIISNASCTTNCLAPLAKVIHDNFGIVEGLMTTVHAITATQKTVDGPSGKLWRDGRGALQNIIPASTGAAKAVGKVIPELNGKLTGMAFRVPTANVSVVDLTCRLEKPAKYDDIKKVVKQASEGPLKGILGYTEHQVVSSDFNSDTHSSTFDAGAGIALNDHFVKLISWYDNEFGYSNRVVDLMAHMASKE

The IC50 is the point on the concentration scale where inhibition reaches its midpoint. `NCCNc1ccc(NCCN)c2c1C(=O)c1ccncc1C2=O` [PIXANTRONE]: the concentration for half-maximal inhibition (IC50) is 0.042 µM (active) in [1] and 0.0483 µM (active) in assay [2].
Turning to `CN1CCN(C2=C(Cl)C(=O)N(c3ccc(Cl)cc3Cl)C2=O)CC1`, the IC50 is > 100 µM (not active) in [3], 1.36 µM (active) at Bcl-2-related protein A1 [4] and 2.62 µM (active) at Bcl-2-related protein A1 [5].
One may read the AC50 as the midpoint of the concentration-response curve, whichever way the signal moves. For `N#C[C@@H]1[C@H](c2ccc(-c3ccccc3F)cc2)[C@@H](CO)N1C(=O)Cc1ccccc1`, the AC50 in [6] is 35 µM (active); on Paired box protein Pax-8 it was 17.3 µM (active); in assay [7], 19.8 µM (active); in assay [8] it was 23.8 µM (active); in [9] it was 26.2 µM (active); in [10] it was 30.4 µM (active). Moreover, the results for the AC50 in [11], in [12] and in [13] were > 70 µM (inactive), 56.2 µM (active) and 20.3 µM (active), respectively.
As a reminder, the EC50 is the concentration giving half of the maximal effect. Broadly, the CC50 is the concentration that lowers cell viability or growth by half. `Oc1nc(-c2ccccn2)nc2sc(-c3ccccc3)cc12`: the EC50 was 0.571 µM (active) in assay [14]; 17.6 µM (active) in the assay with BJ [15]; 4.87 µM (active) in the assay “cells [16]”; 16.2 µM (active) in the assay on BJ [18]; 0.216 µM (active) in assay [19]; 16.6 µM (active) in the assay “cells [20]”. The EC50 in assay [21] is 1.27 µM (active); with BJ [22] it was 15.6 µM (inconclusive); in assay [23], 121 µM (inconclusive); with Streptococcus, 13.2 µM (active). Moreover, the CC50 in the assay with Vero [17] is 2.08 µM (active). Moreover, in the assay with Vero [24], the IC50 is 7 µM (active).
As for `COc1ccc(NC(=O)N2CCCCN3[C@H](C2)[C@@H](c2ccc(C#Cc4ccccc4)cc2)[C@@H]3CO)cc1`, the AC50 at Paired box protein Pax-8 is 5.67 µM (active); in assay [25], 58.4 µM (active); in [26], 29.7 µM (active); in assay [27], 39.7 µM (active); in [28], 2.1 µM (active).

Values taken from ChEMBL document CHEMBL1201862, “PubChem BioAssay data set” (2004).
